Measurements: paper PMC11822212, “High-throughput screening identifies Aurora kinase B as a critical therapeutic target for Merkel cell carcinoma” (Nature Communications, 2025)
Counter-ions that a name gives are not always drawn. Like-named read-outs stand apart in the source and are kept apart here.

Assays:
NIH-3T3 cells = test: qHTS cell viability (CellTiter-Glo, 72 h; primary screen), control cell line; format: cell-based, mouse; details: for Area under the dose-response curve (AUC) NIH3T3: primary high-throughput screen, viability 72 h, n = 1
HEK293T cells = test: as above; format: cell-based, human; details: for Area under the dose-response curve (AUC) HEK293T: primary high-throughput screen, viability 72 h, n = 1
HACAT cells = test: as above; format: cell-based, human; details: for Area under the dose-response curve (AUC) HACAT: primary high-throughput screen, viability 72 h, n = 1
WAGA cells (VP-MCC) = test: qHTS cell viability (CellTiter-Glo, 72 h; primary and follow-up small molecule screen); format: cell-based, human; details: for Area under the dose-response curve (AUC) WAGA: primary high-throughput screen, viability 72 h, n = 1
MCC13 cells (VN-MCC) = test: as above; format: cell-based, human; details: for Area under the dose-response curve (AUC) MCC13: primary high-throughput screen, viability 72 h, n = 1
MKL-2 cells (VP-MCC) = test: as above; format: cell-based, human; details: for Area under the dose-response curve (AUC) MKL-2: primary high-throughput screen, viability 72 h, n = 1
CRL-7250 cells = test: qHTS cell viability (CellTiter-Glo, 72 h; primary screen), control cell line; format: cell-based; details: for Area under the dose-response curve (AUC) CRL7250: primary high-throughput screen, viability 72 h, n = 1
UISO cells (VN-MCC) = test: qHTS cell viability (CellTiter-Glo, 72 h; primary and follow-up small molecule screen); format: cell-based, human; details: for Area under the dose-response curve (AUC) UISO: primary high-throughput screen, viability 72 h, n = 1
MKL-1 cells (VP-MCC) = test: as above; format: cell-based, human; details: for Area under the dose-response curve (AUC) MKL-1: primary high-throughput screen, viability 72 h, n = 1
MCC26 cells (VN-MCC) = test: as above; format: cell-based, human; details: for Area under the dose-response curve (AUC) MCC26: primary high-throughput screen, viability 72 h, n = 1
[1] = area under the dose-response curve, NIH3T3 control cells, AUC<450 = reduced viability
[2] = area under the dose-response curve, HEK293T control cells, AUC<450 = reduced viability
[3] = area under the dose-response curve, HACAT control cells, AUC<450 = reduced viability
[4] = area under the dose-response curve, WAGA cells, AUC<450 = reduced viability
[5] = area under the dose-response curve, MCC13 cells, AUC<450 = reduced viability
[6] = area under the dose-response curve, MKL-2 cells, AUC<450 = reduced viability
[7] = area under the dose-response curve, CRL7250 control cells, AUC<450 = reduced viability
[8] = area under the dose-response curve, UISO cells, AUC<450 = reduced viability
[9] = area under the dose-response curve, MKL-1 cells, AUC<450 = reduced viability
[10] = area under the dose-response curve, MCC26 cells, AUC<450 = reduced viability

| Compound | NIH3T3_AUC (NIH-3T3 cells; [1]) | HEK293T_AUC (HEK293T cells; [2]) | HACAT_AUC (HACAT cells; [3]) | WAGA_AUC (WAGA cells (VP-MCC); [4]) | MCC13_AUC (MCC13 cells (VN-MCC); [5]) | MKL2_AUC (MKL-2 cells (VP-MCC); [6]) | CRL7250_AUC (CRL-7250 cells; [7]) | UISO_AUC (UISO cells (VN-MCC); [8]) | MKL1_AUC (MKL-1 cells (VP-MCC); [9]) | MCC26_AUC (MCC26 cells (VN-MCC); [10]) | NIH3T3_AUC (NIH-3T3 cells) | HEK293T_AUC (HEK293T cells) | HACAT_AUC (HACAT cells) | WAGA_AUC (WAGA cells (VP-MCC)) | MCC13_AUC (MCC13 cells (VN-MCC)) | MKL2_AUC (MKL-2 cells (VP-MCC)) | CRL7250_AUC (CRL-7250 cells) | UISO_AUC (UISO cells (VN-MCC)) | MKL1_AUC (MKL-1 cells (VP-MCC)) | MCC26_AUC (MCC26 cells (VN-MCC)) | also measured |
| --- | --- | --- | --- | --- | --- | --- | --- | --- | --- | --- | --- | --- | --- | --- | --- | --- | --- | --- | --- | --- | --- |
| C[N+]1(CC2COC(c3ccccc3)(C3CCCCC3)O2)CCCCC1 (centres unmarked) [Oxapium iodide] | 474.75 | 460.835 | 474.271 | 422.785 | 501.634 | 426.411 | 483.841 | 505.529 | 436.858 | 482.458 |  |  |  |  |  |  |  |  |  |  |  |
| CCOC(=O)[C@H](CCc1ccccc1)N[C@@H](C)C(=O)N1CCC[C@H]1C(=O)O [Enalapril maleate] | 481.903 | 479.159 | 461.773 | 389.514 | 497.832 | 341.505 | 468.406 | 510.45 | 398.754 | 486.615 |  |  |  |  |  |  |  |  |  |  |  |
| C[C@H](CCC(=O)O)[C@H]1CC[C@H]2[C@@H]3[C@H](O)C[C@@H]4C[C@H](O)CC[C@]4(C)[C@H]3CC[C@]12C [Chenodeoxycholic acid] | 479.384 | 474.014 | 475.403 | 440.562 | 458.762 | 427.388 | 462.86 | 483.595 | 439.87 | 489.842 |  |  |  |  |  |  |  |  |  |  |  |
| CS(=O)(=O)Oc1ccc2c(NC(N)=O)c(C(=O)c3ccc(Cl)cc3Cl)oc2c1 [Lirimilast] |  |  |  |  |  |  |  |  |  |  | 472.494 | 473.552 | 475.167 | 295.464 | 475.91 | 353.495 | 477.656 | 491.115 | 416.805 | 450.578 |  |
| O=C(O)/C=C(\CC(=O)O)C(=O)O [trans-Aconitic acid] | 503.673 | 467.145 | 490.879 | 441.902 | 525.202 | 378.194 | 486.622 | 494.852 | 435.147 | 496.696 |  |  |  |  |  |  |  |  |  |  |  |
| CCOc1cc(N)c(Cl)cc1C(=O)NCC1CN(Cc2ccc(F)cc2)CCO1 (centres unmarked) [Mosapride citrate] | 470.089 | 457.079 | 473.779 | 443.892 | 479.818 | 377.067 | 480.736 | 489.758 | 438.77 | 466.055 |  |  |  |  |  |  |  |  |  |  |  |
| CC(C)CN(C[C@@H](O)[C@H](Cc1ccccc1)NC(=O)O[C@H]1CO[C@H]2OCC[C@H]21)S(=O)(=O)c1ccc(N)cc1 [Darunavir] |  |  |  |  |  |  |  |  |  |  | 481.353 | 472.283 | 465.16 | 433.192 | 471.675 | 413.603 | 469.055 | 505.158 | 420.268 | 501.486 |  |
| COC[C@H]1OC(=O)c2coc3c2[C@@]1(C)C1=C(C3=O)[C@@H]2CC[C@H](O)[C@@]2(C)C[C@H]1OC(C)=O [17_-hydroxy Wortmannin] |  |  |  |  |  |  |  |  |  |  | 465.601 | 476.067 | 466.176 | 431.369 | 505.746 | 431.749 | 461.56 | 484.969 | 433.03 | 506.622 | Area under the dose-response curve (AUC) WAGA Replicate 1 (WAGA cells (VP-MCC)): 390.4; Area under the dose-response curve (AUC) WAGA Replicate 2 (WAGA cells (VP-MCC)): 444.0; Area under the dose-response curve (AUC) WAGA Replicate 3 (WAGA cells (VP-MCC)): 465.6; Area under the dose-response curve (AUC) MCC13 Replicate 1 (MCC13 cells (VN-MCC)): 446.4; Area under the dose-response curve (AUC) MCC13 Replicate 2 (MCC13 cells (VN-MCC)): 414.9; Area under the dose-response curve (AUC) MCC13 Replicate 3 (MCC13 cells (VN-MCC)): 433.1; Area under the dose-response curve (AUC) MKL-2 Replicate 1 (MKL-2 cells (VP-MCC)): 408.4; Area under the dose-response curve (AUC) MKL-2 Replicate 2 (MKL-2 cells (VP-MCC)): 434.1; Area under the dose-response curve (AUC) MKL-2 Replicate 3 (MKL-2 cells (VP-MCC)): 442.8; Area under the dose-response curve (AUC) UISO Replicate 1 (UISO cells (VN-MCC)): 419.6; Area under the dose-response curve (AUC) UISO Replicate 2 (UISO cells (VN-MCC)): 426.0; Area under the dose-response curve (AUC) UISO Replicate 3 (UISO cells (VN-MCC)): 431.4; Area under the dose-response curve (AUC) MKL-1 Replicate 1 (MKL-1 cells (VP-MCC)): 417.4; Area under the dose-response curve (AUC) MKL-1 Replicate 2 (MKL-1 cells (VP-MCC)): 456.9; Area under the dose-response curve (AUC) MKL-1 Replicate 3 (MKL-1 cells (VP-MCC)): 460.6; Area under the dose-response curve (AUC) MCC26 Replicate 1 (MCC26 cells (VN-MCC)): 392.5; Area under the dose-response curve (AUC) MCC26 Replicate 2 (MCC26 cells (VN-MCC)): 398.0; Area under the dose-response curve (AUC) MCC26 Replicate 3 (MCC26 cells (VN-MCC)): 386.6 |
| COc1cc(C(=O)NCc2ccc(OCCN(C)C)cc2)cc(OC)c1OC [Trimethobenzamide hydrochloride] | 459.509 | 452.936 | 491.547 | 468.296 | 447.793 | 453.926 | 477.417 | 426.826 | 452.093 | 425.084 |  |  |  |  |  |  |  |  |  |  |  |
| c1cc(-c2sc(-c3ccncc3)c(-c3ccncc3)c2-c2ccncc2)ccn1 [NSC-75503, reference compound] |  |  |  |  |  |  |  |  |  |  |  |  |  |  |  |  |  |  |  |  | Area under the dose-response curve (AUC) NIH3T3 (NIH-3T3 cells): 481.5; Area under the dose-response curve (AUC) HEK293T (HEK293T cells): 450.5; Area under the dose-response curve (AUC) HACAT (HACAT cells): 453.3; Area under the dose-response curve (AUC) WAGA (WAGA cells (VP-MCC)): 489.4; Area under the dose-response curve (AUC) MCC13 (MCC13 cells (VN-MCC)): 492.9; Area under the dose-response curve (AUC) MKL-2 (MKL-2 cells (VP-MCC)): 550.2; Area under the dose-response curve (AUC) CRL7250 (CRL-7250 cells): 461.0; Area under the dose-response curve (AUC) UISO (UISO cells (VN-MCC)): 456.0; Area under the dose-response curve (AUC) MKL-1 (MKL-1 cells (VP-MCC)): 478.1; Area under the dose-response curve (AUC) MCC26 (MCC26 cells (VN-MCC)): 468.9 |
| CC(N[C@H]1CCCC[C@@H]1NC(=O)c1ccc(Cl)cc1)c1cccc2ccccc12 (some centres unmarked) [Calhex-231] |  |  |  |  |  |  |  |  |  |  | 459.862 | 469.437 | 466.353 | 428.682 | 461.512 | 347.428 | 474.743 | 470.957 | 380.302 | 461.125 |  |
| Cc1ncc(CNC(=O)N(CCCl)N=O)c(N)n1 [Nimustine] |  |  |  |  |  |  |  |  |  |  | 486.849 | 481.182 | 461.645 | 465.895 | 434.577 | 504.085 | 491.102 | 443.983 | 478.611 | 438.698 |  |
| Cc1nc2c([nH]1)c(=O)n(C)c(=O)n2Cc1ccco1 [Furafylline] | 485.732 | 497.799 | 476.414 | 445.554 | 444.774 | 443.745 | 466.658 | 447.137 |  | 399.611 |  |  |  |  |  |  |  |  |  |  | MKL1_AUC (MKL-1 cells (VP-MCC); {}): 414.343 |
| CN1CCN(CCCN2c3ccccc3Sc3ccc(C(F)(F)F)cc32)CC1 [Trifluoperazine hydrochloride, reference compound] |  |  |  |  |  |  |  |  |  |  |  |  |  |  |  |  |  |  |  |  | Area under the dose-response curve (AUC) NIH3T3 (NIH-3T3 cells): 467.6; Area under the dose-response curve (AUC) HEK293T (HEK293T cells): 471.8; Area under the dose-response curve (AUC) HACAT (HACAT cells): 455.5; Area under the dose-response curve (AUC) WAGA (WAGA cells (VP-MCC)): 495.2; Area under the dose-response curve (AUC) MCC13 (MCC13 cells (VN-MCC)): 486.4; Area under the dose-response curve (AUC) MKL-2 (MKL-2 cells (VP-MCC)): 488.7; Area under the dose-response curve (AUC) CRL7250 (CRL-7250 cells): 412.6; Area under the dose-response curve (AUC) UISO (UISO cells (VN-MCC)): 500.3; Area under the dose-response curve (AUC) MKL-1 (MKL-1 cells (VP-MCC)): 497.8; Area under the dose-response curve (AUC) MCC26 (MCC26 cells (VN-MCC)): 481.8 |
